Data taken from publication PMC5146859, “Phase 1/2 study of pacritinib, a next generation JAK2/FLT3 inhibitor, in myelofibrosis or other myeloid malignancies” (Journal of Hematology & Oncology, 2016).

Tested on: patients with advanced myeloid malignancies
Assay: Phase 1 safety: adverse events (NCIC-CTCAE version 3.0)
Assay type: in vivo, human
Description: At screening/baseline, patients underwent a medical history, physical examination, vital sign assessment, ECOG PS assessment, electrocardiogram, and assessment of hematologic parameters and blood chemistry. Hematology/blood chemistry, physical examinations, and vital sign assessments were performed throughout treatment. Toxicity was assessed using the National Cancer Institute Common Terminology Criteria for Adverse Events (NCIC-CTCAE), version 3.0, with relationship to treatment assigned by the investigator and were recorded from the first dose of pacritinib until 30 days after the last dose. Bone marrow biopsy and/or aspirate samples were drawn at baseline, on day 1 of cycle 4 and cycle 10, as clinically indicated, and at the termination visit. Disease response and progression were determined using the relevant International Working Group (IWG) criteria.
The efficacy-evaluable population included those patients with a baseline and corresponding follow-up value. The safety population included all enrolled patients who received ≥1 dose of pacritinib.

C1=C/COCc2cc(ccc2OCCN2CCCC2)Nc2nccc(n2)-c2cccc(c2)COC/1 [pacritinib, 11-(2-pyrrolidin-1-yl-ethoxy)-14,19-dioxa-5,7,26-triaza-tetracyclo[19.3.1.1(2,6). 1(8,12)]heptacosa-1(25),2(26),3,5,8,10,12(27),16,21,23-decaene]
Grade 4 gastrointestinal AEs (phase 1): No grade 4 gastrointestinal AEs occurred
Relation of fatal AEs to treatment (phase 1): None of the AEs were considered to be related to treatment
Treatment-emergent AE: Abdominal distension (phase 1, 100 mg, n = 3): 0 n (%)
Treatment-emergent AE: Abdominal pain (phase 1, 100 mg, n = 3): 1 (33.3) n (%)
Treatment-emergent AE: Anemia (phase 1, 100 mg, n = 3): 0 n (%)
Treatment-emergent AE: Any AE (phase 1, 100 mg, n = 3): 3 (100.0) n (%)
Treatment-emergent AE: Asthenia (phase 1, 100 mg, n = 3): 2 (66.7) n (%)
Treatment-emergent AE: Back pain (phase 1, 100 mg, n = 3): 1 (33.3) n (%)
Treatment-emergent AE: Cardiac murmur (phase 1, 100 mg, n = 3): 1 (33.3) n (%)
Treatment-emergent AE: Chills (phase 1, 100 mg, n = 3): 0 n (%)
Treatment-emergent AE: Constipation (phase 1, 100 mg, n = 3): 2 (66.7) n (%)
Treatment-emergent AE: Cough (phase 1, 100 mg, n = 3): 1 (33.3) n (%)
Treatment-emergent AE: Decreased appetite (phase 1, 100 mg, n = 3): 2 (66.7) n (%)
Treatment-emergent AE: Dehydration (phase 1, 100 mg, n = 3): 0 n (%)
Treatment-emergent AE: Diarrhea (phase 1, 100 mg, n = 3): 2 (66.7) n (%)
Treatment-emergent AE: Dizziness (phase 1, 100 mg, n = 3): 0 n (%)
Treatment-emergent AE: Dyspnea (phase 1, 100 mg, n = 3): 2 (66.7) n (%)
Treatment-emergent AE: Edema peripheral (phase 1, 100 mg, n = 3): 2 (66.7) n (%)
Treatment-emergent AE: Epistaxis (phase 1, 100 mg, n = 3): 2 (66.7) n (%)
Treatment-emergent AE: Fatigue (phase 1, 100 mg, n = 3): 1 (33.3) n (%)
Treatment-emergent AE: Hyperbilirubinemia (phase 1, 100 mg, n = 3): 1 (33.3) n (%)
Treatment-emergent AE: Hyperuricemia (phase 1, 100 mg, n = 3): 1 (33.3) n (%)
Treatment-emergent AE: Insomnia (phase 1, 100 mg, n = 3): 1 (33.3) n (%)
Treatment-emergent AE: Nausea (phase 1, 100 mg, n = 3): 0 n (%)
Treatment-emergent AE: Neutropenia (phase 1, 100 mg, n = 3): 1 (33.3) n (%)
Treatment-emergent AE: Night sweats (phase 1, 100 mg, n = 3): 1 (33.3) n (%)
Treatment-emergent AE: Pain in extremity (phase 1, 100 mg, n = 3): 3 (100.0) n (%)
Treatment-emergent AE: Petechiae (phase 1, 100 mg, n = 3): 2 (66.7) n (%)
Treatment-emergent AE: Pyrexia (phase 1, 100 mg, n = 3): 1 (33.3) n (%)
Treatment-emergent AE: Skin lesion (phase 1, 100 mg, n = 3): 0 n (%)
Treatment-emergent AE: Thrombocytopenia (phase 1, 100 mg, n = 3): 1 (33.3) n (%)
Treatment-emergent AE: Upper respiratory tract infection (phase 1, 100 mg, n = 3): 0 n (%)
Treatment-emergent AE: Vomiting (phase 1, 100 mg, n = 3): 0 n (%)
Treatment-emergent AE: Abdominal distension (phase 1, 150 mg, n = 6): 0 n (%)
Treatment-emergent AE: Abdominal pain (phase 1, 150 mg, n = 6): 1 (16.7) n (%)
Treatment-emergent AE: Anemia (phase 1, 150 mg, n = 6): 1 (16.7) n (%)
Treatment-emergent AE: Any AE (phase 1, 150 mg, n = 6): 6 (100.0) n (%)
Treatment-emergent AE: Asthenia (phase 1, 150 mg, n = 6): 2 (33.3) n (%)
Treatment-emergent AE: Back pain (phase 1, 150 mg, n = 6): 2 (33.3) n (%)
Treatment-emergent AE: Cardiac murmur (phase 1, 150 mg, n = 6): 0 n (%)
Treatment-emergent AE: Chills (phase 1, 150 mg, n = 6): 2 (33.3) n (%)
Treatment-emergent AE: Constipation (phase 1, 150 mg, n = 6): 2 (33.3) n (%)
Treatment-emergent AE: Cough (phase 1, 150 mg, n = 6): 1 (16.7) n (%)
Treatment-emergent AE: Decreased appetite (phase 1, 150 mg, n = 6): 2 (33.3) n (%)
Treatment-emergent AE: Dehydration (phase 1, 150 mg, n = 6): 1 (16.7) n (%)
Treatment-emergent AE: Diarrhea (phase 1, 150 mg, n = 6): 2 (33.3) n (%)
Treatment-emergent AE: Dizziness (phase 1, 150 mg, n = 6): 0 n (%)
Treatment-emergent AE: Dyspnea (phase 1, 150 mg, n = 6): 1 (16.7) n (%)
Treatment-emergent AE: Edema peripheral (phase 1, 150 mg, n = 6): 2 (33.3) n (%)
Treatment-emergent AE: Epistaxis (phase 1, 150 mg, n = 6): 1 (16.7) n (%)
Treatment-emergent AE: Fatigue (phase 1, 150 mg, n = 6): 1 (16.7) n (%)
Treatment-emergent AE: Hyperbilirubinemia (phase 1, 150 mg, n = 6): 1 (16.7) n (%)
Treatment-emergent AE: Hyperuricemia (phase 1, 150 mg, n = 6): 1 (16.7) n (%)
Treatment-emergent AE: Insomnia (phase 1, 150 mg, n = 6): 1 (16.7) n (%)
Treatment-emergent AE: Nausea (phase 1, 150 mg, n = 6): 1 (16.7) n (%)
Treatment-emergent AE: Neutropenia (phase 1, 150 mg, n = 6): 2 (33.3) n (%)
Treatment-emergent AE: Night sweats (phase 1, 150 mg, n = 6): 0 n (%)
Treatment-emergent AE: Pain in extremity (phase 1, 150 mg, n = 6): 0 n (%)
Treatment-emergent AE: Petechiae (phase 1, 150 mg, n = 6): 2 (33.3) n (%)
Treatment-emergent AE: Pyrexia (phase 1, 150 mg, n = 6): 2 (33.3) n (%)
Treatment-emergent AE: Skin lesion (phase 1, 150 mg, n = 6): 4 (66.7) n (%)
Treatment-emergent AE: Thrombocytopenia (phase 1, 150 mg, n = 6): 2 (33.3) n (%)
Treatment-emergent AE: Upper respiratory tract infection (phase 1, 150 mg, n = 6): 2 (33.3) n (%)
Treatment-emergent AE: Vomiting (phase 1, 150 mg, n = 6): 1 (16.7) n (%)
Treatment-emergent AE: Abdominal distension (phase 1, 200 mg, n = 9): 2 (22.2) n (%)
Treatment-emergent AE: Abdominal pain (phase 1, 200 mg, n = 9): 1 (11.1) n (%)
Treatment-emergent AE: Anemia (phase 1, 200 mg, n = 9): 1 (11.1) n (%)
Treatment-emergent AE: Any AE (phase 1, 200 mg, n = 9): 9 (100.0) n (%)
Treatment-emergent AE: Asthenia (phase 1, 200 mg, n = 9): 1 (11.1) n (%)
Treatment-emergent AE: Back pain (phase 1, 200 mg, n = 9): 0 n (%)
Treatment-emergent AE: Cardiac murmur (phase 1, 200 mg, n = 9): 1 (11.1) n (%)
Treatment-emergent AE: Chills (phase 1, 200 mg, n = 9): 0 n (%)
Treatment-emergent AE: Constipation (phase 1, 200 mg, n = 9): 2 (22.2) n (%)
Treatment-emergent AE: Cough (phase 1, 200 mg, n = 9): 1 (11.1) n (%)
Treatment-emergent AE: Decreased appetite (phase 1, 200 mg, n = 9): 0 n (%)
